{
  "source": "paper PMC4815068",
  "about": "“A phase I study of high-dose rosuvastatin with standard dose erlotinib in patients with advanced solid malignancies” (Journal of Translational Medicine, 2016)",
  "key": {"NSCLC patients": {"test_system": "NSCLC patients", "set-up": "method as in PMID 21411446", "settings": "hypercholesterolemia dose of simvastatin daily with standard dose gefitinib, SCC patients; cited from earlier work"}, "advanced solid tumours": {"test_system": "advanced solid tumours", "assay": "Tumor response (RECIST) and days on study", "type": "in vivo, human", "procedure": "Physical examinations occurred at the start of each cycle and radiological tumor evaluations were completed after every 2 cycles. Tumor response was assessed using response evaluation criteria in solid tumors (RECIST) criteria. […] In these cases, the patient went off protocol treatment. […] Similar strategies were employed for other toxicities as well. […] This study was conducted according to Good Clinical Practice."}, "[1]": {"assay": "On-study laboratory evaluations (CPK, cholesterol, LDL, HDL)", "type": "in vivo, human", "procedure": "Patients had weekly laboratory evaluations for hematogical, hepatic and renal functions and biochemical changes including creatine and creatine phosphokinase (CPK) and fasting total cholesterol, HDL and LDL during cycle 1 and at the start of each subsequent cycle. Physical examinations occurred at the start of each cycle and radiological tumor evaluations were completed after every 2 cycles. Tumor response was assessed using response evaluation criteria in solid tumors (RECIST) criteria."}, "[2]": {"test_system": "patients with advanced solid tumours", "protocol": "This was a single-center, phase I open-label study to determine the safety and RPTD of rosuvastatin in combination with the standard clinical dose of erlotinib (150 mg/day) in patients with advanced solid tumours. […] Eight cohorts from 1 to 8 mg/kg/day rosuvastatin given concurrently with standard dose erlotinb in 28-day cycles were planned. […] Patients received therapy until evidence of disease progression, the development of serious or unmanageable adverse events (SAE), or until study withdrawal. Clinically or radiological documented disease and an ECOG performance status of 0, 1 or 2 was also required. All study patients had adequate hematogical, hepatic and renal functions at baseline. Adequate hematological function was defined as hemoglobin ≥90 g/L, absolute granulocyte count ≥1.5 × 10^9/L and platelet counts ≥100 × 10^9/L. Biochemical parameters for hepatic function included; total bilirubin <1.5× the upper limit of normal (ULN) and ALT/AST <1.5× ULN. […] Any anticholesterol agents were discontinued at least 7 days prior to starting the trial.\nErlotinib was provided by Roche Canada and was administered orally in tablet form at a standard daily dose of 150 mg. […] The starting dose of rosuvastatin was 1 mg/kg/day with the dose of rosuvastatin increasing in a step-wise manner in escalating doses of 1 mg/kg/day. […] During cycle-1 of the dose escalation, treatment with rosuvastin was administered as follows: 1 week off, then daily for 2 weeks, then 1 week off. […] Doses were rounded to the nearest 5 mg since rosuvastatin is available in 5, 10, 20 and 40 mg tablets (purchased from AstraZeneca, Canada). Oral administration of rosuvastatin was once daily if daily dose was <80 mg, twice if 81–160 mg, three times a day if 161–240 mg and four times a day if >240 mg daily dose. […] No prophylactic medications were supplied. Standard supportive care medications were allowed. Oral supplementation of ubiquinone at 60 mg po QID was initiated if patient developed grade 3 or 4 muscle toxicity and continued until recovery to baseline.\nA 3 + 3 dose escalation phase I study design was used, with 3 patients planned at each cohort. […] All 3 patients at a given dose level needed to complete the first cycle of treatment without suffering DLT before new patients were enrolled at the next dose level. The lead patient at each new dose level completed the first cycle of treatment before other patients were enrolled at the same dose level. If 1/3 initial patients at each dose experienced a DLT, then the treatment level was expanded to at least 6 patients. […] There was no dose escalations allowed within individual patients. If >2 patients at any dose level experienced DLT, then that level was considered to have exceeded the maximal tolerated dose (MTD), and the level immediately preceding that level was designated as MTD and RPTD."}, "CYP3A4": {"test_system": "CYP3A4", "settings": "cited from earlier work"}, "[3]": {"test_system": "patients with solid tumors", "settings": "weekly regimen, lovastatin monotherapy; cited from earlier work"}, "recurrent SCC patients": {"test_system": "recurrent SCC patients", "settings": "cited from earlier work"}, "[4]": {"assay": "Pharmacokinetic analysis of serum levels by LC/MS/MS", "procedure": "Pharmacokinetic analysis of erlotinib serum levels was undertaken at day 6 (erlotinib alone) and at day 14 (erlotinib and 1 mg/kg/day rosuvastatin treatments) and rosuvastatin at the day 14 timepoint of cycle 1 in 6 study patients (Schedule A). On day 6 and 14 serum erlotinib levels and day 14 serum rosuvastatin levels were determined at 2 h intervals for a full 24 h after drug treatments. The analysis of rosuvastatin and erlotinib was performed by a validated liquid chromatography mass spectrometry/mass spectrometry (LC/MS/MS) method. Protein precipitation (plasma: 50/50 acetonitrile/[…] 1:2) was used for sample preparation before injecting to HPLC for separation. Rosuvastatin, erlotinib and internal standard (IS), 6,7-Dimethyl-2,3-di(2-pyridyl)-quinoxaline (DMDPQ) was eluted by HPLC (Accela, Thermo) using a gradient mobile phase [0.2 % Formic acid (V:V), and 100 % methanol]. […] Detection was done by tandem Mass spectrometer (TSQ Quantum Access MAX, Thermo) with electrospray ionization in positive mode. The multiple reaction monitoring (MRM) was be used to detect specific precursor ion to product ion transitions for rosuvastatin (m/s 482.3/258.1), erlotinib (m/s 394.3/336.2), and IS (m/s 313.2/91.2), respectively. Xcalibur and TSQ Tune master software (Thermo) was used as the system controller and integrator."}, "[5]": {"settings": "concurrent rosuvastatin + erlotinib"}},
  "note": "“Also recorded” adds a separate entry of the source. Where two headings read alike, the source gives them in different places. Marks after values point to notes of the source that are not given here.",
  "data": [
    {"compound": "CCC(C)(C)C(=O)O[C@H]1C[C@@H](C)C=C2C=C[C@H](C)[C@H](CC[C@@H]3C[C@@H](O)CC(=O)O3)[C@H]21", "note": "[simvastatin]", "values": [
      {"measurement": "Response rates and PFS compared to gefitinib alone", "setting": "NSCLC patients", "result": "higher response rates and longer PFS"}
    ]},
    {"compound": "CC(C)c1nc(N(C)S(C)(=O)=O)nc(-c2ccc(F)cc2)c1/C=C/[C@@H](O)C[C@@H](O)CC(=O)O", "note": "[rosuvastatin]", "values": [
      {"measurement": "Patients with durable stable disease, NSCLC", "setting": "advanced solid tumours; [5]", "result": "2/4"},
      {"measurement": "Patients with durable stable disease, genitourinary (GU) cancer (vaginal squamous epithelial carcinoma)", "setting": "advanced solid tumours; [5]", "result": "1/4"},
      {"measurement": "Patients with durable stable disease, pancreatic cancer (neuroendocrine tumour)", "setting": "advanced solid tumours; [5]", "result": "1/2"},
      {"measurement": "Evaluable patients on study for greater than 170 days", "setting": "advanced solid tumours; concurrent rosuvastatin + erlotinib (Cohorts 1, 2 and Schedule A)", "result": "4/16"},
      {"measurement": "Patients on study for greater than 275 days", "setting": "advanced solid tumours; concurrent rosuvastatin + erlotinib, 16 evaluable", "result": 3, "unit": "patients"},
      {"measurement": "Durable stable disease for more than 170 days (rate)", "setting": "advanced solid tumours; concurrent rosuvastatin + erlotinib, evaluable for response n = 16", "result": 25, "unit": "%"},
      {"measurement": "Patients with disease stabilization greater than 6 months", "setting": "advanced solid tumours; concurrent treatment regimens, rosuvastatin + erlotinib", "result": "4/16"},
      {"measurement": "Objective responses (RECIST)", "setting": "advanced solid tumours; rosuvastatin + erlotinib, 22 evaluable patients", "result": "No objective responses; also recorded: absence of objective responses"},
      {"measurement": "Patients with elevated CPK levels during rosuvastatin treatments", "setting": "[1]; 1 mg/kg/day dose + erlotinib", "result": "1 out of 16"},
      {"measurement": "Patients with elevated CPK levels during rosuvastatin treatments", "setting": "[1]; 2 mg/kg/day dose (Cohort 2) + erlotinib", "result": "4 out of the 8"},
      {"measurement": "Serum CPK level in the patient with rhabdomyolysis", "setting": "[1]; day 28 (erlotinib and rosuvastatin 2 mg/kg/day), increased from 60 U/L", "result": "over 2000 U/L"},
      {"measurement": "Change in serum cholesterol, LDL or HDL levels", "setting": "[1]; rosuvastatin + erlotinib, even in patients on study greater than 170 days", "result": "did not result in significant changes"},
      {"measurement": "Anorexia, ≥Grade 2", "setting": "[2]; human, in vivo", "result": 62.5, "unit": "%"},
      {"measurement": "Anxiety, ≥Grade 2", "setting": "[2]; human, in vivo", "result": 4.2, "unit": "%"},
      {"measurement": "Diarrhea, ≥Grade 2", "setting": "[2]; human, in vivo", "result": 20.8, "unit": "%"},
      {"measurement": "Fatigue, ≥Grade 2", "setting": "[2]; human, in vivo", "result": 75.0, "unit": "%"},
      {"measurement": "Muscle weakness, ≥Grade 2", "setting": "[2]; human, in vivo", "result": 41.7, "unit": "%"},
      {"measurement": "Myalgia, ≥Grade 2", "setting": "[2]; human, in vivo", "result": 29.2, "unit": "%"},
      {"measurement": "Nausia, ≥Grade 2", "setting": "[2]; human, in vivo", "result": 16.7, "unit": "%"},
      {"measurement": "Rash, ≥Grade 2", "setting": "[2]; human, in vivo", "result": 29.2, "unit": "%"},
      {"measurement": "Rhabdomyolysis, ≥Grade 2", "setting": "[2]; human, in vivo", "result": "4.2^a %"},
      {"measurement": "Vomiting, ≥Grade 2", "setting": "[2]; human, in vivo", "result": 16.7, "unit": "%"},
      {"measurement": "Weight loss, ≥Grade 2", "setting": "[2]; human, in vivo", "result": 16.7, "unit": "%"},
      {"measurement": "Patients who developed rhabdomyolysis (study related death)", "setting": "[2]; rosuvastatin 2 mg/kg/day + erlotinib, 8 evaluable patients", "result": "single patient out of 8"},
      {"measurement": "CYP3A4 substrate", "setting": "CYP3A4; ref 32", "result": "non-CYP3A4 substrate"},
      {"measurement": "CYP3A4 substrate", "setting": "CYP3A4; ref 33", "result": "not a CYP3A4 substrate"}
    ]},
    {"compound": "CC[C@H](C)C(=O)O[C@H]1C[C@@H](C)C=C2C=C[C@H](C)[C@H](CC[C@@H]3C[C@@H](O)CC(=O)O3)[C@H]21", "note": "[lovastatin]", "values": [
      {"measurement": "Clinical efficacy as an anticancer therapy", "setting": "[3]", "result": "failed to demonstrate clinical efficacy"},
      {"measurement": "DLT of lovastatin", "setting": "recurrent SCC patients; prolonged oral administration, recurrent SCC", "result": "reversible muscle toxicity"},
      {"measurement": "Patients with disease stabilization lasting greater than 3 months", "setting": "recurrent SCC patients; single agent lovastatin, SCC patients", "result": 23, "unit": "%"},
      {"measurement": "Dose-limiting muscle toxicities greater than grade 2 in severity", "setting": "recurrent SCC patients; single agent lovastatin, of the 5 patients with muscle DLT", "result": 2},
      {"measurement": "Patients with reversible dose-limiting muscle toxicities", "setting": "recurrent SCC patients; single agent lovastatin, of the 24 patients enrolled", "result": 5, "unit": "patients"}
    ]},
    {"compound": "C#Cc1cccc(Nc2ncnc3cc(OCCOC)c(OCCOC)cc23)c1", "note": "[erlotinib]", "values": [
      {"measurement": "Tmax", "setting": "[4]; erlotinib (+rosuvastatin 1 mg/kg/day) (day 14), individual Schedule A patients 14-18", "result": 6, "unit": "h"},
      {"measurement": "Tmax", "setting": "[4]; erlotinib alone (day 6), 150 mg/day, individual Schedule A patients 13-18", "result": 6, "unit": "h"},
      {"measurement": "Half-life of erlotinib on addition of rosuvastatin", "setting": "[4]; human, in vivo", "result": "unaffected"},
      {"measurement": "half-life", "setting": "[4]; human, in vivo, 150 mg/day", "result": 18.1, "unit": "h"},
      {"measurement": "half-life", "setting": "[4]; human, in vivo, 150 mg/day, t 1/2, erlotinib alone (day 6), 150 mg/day, individual Schedule A patients 13-18", "result": 25.7, "unit": "h"},
      {"measurement": "half-life", "setting": "[4]; human, in vivo, t1/2", "result": 24.3, "unit": "h"},
      {"measurement": "Erlotinib AUC, day 6 (alone) versus day 14 (+rosuvastatin)", "setting": "[4]; in vivo", "result": "did not differ significantly"},
      {"measurement": "Erlotinib Cmax and Tmax, day 6 versus day 14 (+rosuvastatin)", "setting": "[4]; in vivo", "result": "similar"},
      {"measurement": "Plasma erlotinib levels on addition of rosuvastatin", "setting": "[4]; in vivo", "result": "unaffected"}
    ]}
  ]
}
